The values that follow come from patent publication US5512471A, “Process for purifying an α-D-galactosidase isozyme from Coffea beans” (The Curators of the University of Missouri, priority 1992, dated 1996).

Assay [1] relates to α-D-galactosidase isozyme. The assay is described as follows: Substrate specificity with PNP and 4-MU conjugates. To be noted: pH 6.0. It counts as biochemical, Coffea canephora. An excerpt:
Analytical procedures: Protein concentration was quantitated by the method of Bradford using bovine serum albumin (BSA) as a standard (9). […] One unit of activity was defined as 1.0 μmole of substrate hydrolyzed per minute.

The subject of assay [2] is α-D-galactosidase isozyme. Nature of the assay: Km determination by varying the substrate concentration. It counts as biochemical, Coffea canephora. To be noted: 50 mM Na citrate + 1 mg/ml BSA, pH 6.0; mean, S.D.=0.09, N=3. As to the method: The pH optimum was determined by incubating aliquots of the enzyme in 40 mM Na citrate +40 mN Na H2 PO4 +1 mg/ml BSA+2.5 mM PNP-α-D-galactopyranoside, pH =2.0 to 8.0. The ionic strength optimum was determined by incubating aliquots of the enzyme in 5.0 mM Na citrate +1 mg/ml BSA +2.5 mM PNP α-D-galactopyranoside +0 to 1.0M Na Cl, pH =6.0. The Km for PNP-α-D-galactopyranoside was determined by varying the substrate concentration in 50 mM Na citrate +1 mg/ml BSA, pH =6.0. The native molecular weight of the isozyme was determined by applying a concentrated portion of the enzyme to a 1.5×45 cm Sephacryl S-200 column equilibrated in 25 mM Na citrate +200 mM NaCl, pH=6.0.

The mark [3] stands for this setting: 4-MU substrates, % of activity on 4-MU-α-D-galactopyranoside.
The mark [4] stands for this setting: PNP conjugates 2.5 mM, % of activity on PNP-α-D-galactopyranoside.

SMILES strings stand for the structures.

With `CC(=O)NC1C(O)CC(Oc2ccc3c(C)cc(=O)oc3c2)(C(=O)O)OC1C(O)C(O)CO` (stereo not drawn) [4-MU-N-acetyl-α-neuraminic acid], the “RELATIVE ACTIVITY” value in assay [1] (setting [3]) is under 0.01%. The same measure, in the same setting: then `Cc1cc(=O)oc2cc(O[C@H]3O[C@H](CO)[C@H](O)[C@H](O)[C@H]3O)ccc12` [4-MU-α-D-galactopyranoside], with 100.00%. For the molecule `CC(=O)N[C@H]1[C@@H](Oc2ccc([N+](=O)[O-])cc2)O[C@H](CO)[C@H](O)[C@@H]1O` [PNP-N-acetyl-α-D-galactosaminide], in assay [1] (setting [4]), the “RELATIVE ACTIVITY” value is listed as under 0.06%. On the same count and under the same terms, for `CC(=O)N[C@H]1[C@@H](Oc2ccc([N+](=O)[O-])cc2)O[C@H](CO)[C@@H](O)[C@@H]1O` [PNP-N-acetyl-α-D-glucosaminide] the value was under 0.06%. Still for that read-out and setting: for `CC(=O)N[C@H]1[C@H](Oc2ccc([N+](=O)[O-])cc2)O[C@H](CO)[C@H](O)[C@@H]1O` [PNP-N-acetyl-β-D-galactosaminide] the value was under 0.06%; for `CC(=O)N[C@H]1[C@H](Oc2ccc([N+](=O)[O-])cc2)O[C@H](CO)[C@@H](O)[C@@H]1O` [PNP-N-acetyl-β-D-glucosaminide], under 0.06%. On to `O=[N+]([O-])c1ccc(O[C@H]2O[C@H](CO)[C@H](O)[C@H](O)[C@H]2O)cc1` [PNP-α-D-galactopyranoside], for which the Michaelis constant (Km) in assay [2] stood at 260 µM. Also, the “RELATIVE ACTIVITY” value in assay [1] (setting [4]) turned out to be 100.00%. `O=[N+]([O-])c1ccc(O[C@H]2O[C@H](CO)[C@@H](O)[C@H](O)[C@H]2O)cc1` [PNP-α-D-glucopyranoside]: in assay [1] (setting [4]), the “RELATIVE ACTIVITY” value is recorded as under 0.06%. Consider `O=[N+]([O-])c1ccc(O[C@@H]2OC[C@H](O)[C@H](O)[C@H]2O)cc1` [PNP-α-L-arabinopyranoside], for which the “RELATIVE ACTIVITY” value in assay [1] (setting [4]) was under 0.06%. Still for that read-out and setting: for `C[C@@H]1O[C@@H](Oc2ccc([N+](=O)[O-])cc2)[C@@H](O)[C@H](O)[C@@H]1O` [PNP-α-L-fucopyranoside] the value was under 0.06%; for `O=[N+]([O-])c1ccc(O[C@@H]2O[C@H](CO)[C@H](O)[C@H](O)[C@H]2O)cc1` [PNP-β-D-galactopyranoside], under 0.06%; for `O=[N+]([O-])c1ccc(O[C@@H]2O[C@H](CO)[C@@H](O)[C@H](O)[C@H]2O)cc1` [PNP-β-D-glucopyranoside], under 0.06%. For the molecule `C[C@@H]1O[C@H](Oc2ccc([N+](=O)[O-])cc2)[C@@H](O)[C@H](O)[C@@H]1O` [PNP-β-L-fucopyranoside], the “RELATIVE ACTIVITY” value in assay [1] (setting [4]) is under 0.06%.
